# Reference: patent US12714707B2, “Combination cancer therapy using CHK inhibitor” (SHANGHAI HUAYU BIOTECHNOLOGY CO., LTD., priority 2020, dated 2026)
# Columns and labels:
# Assay type in all cases: cell-based
# [1] = system: BT474; assay: MTT cell death rate, BT474 cells, 605B with AZD2281 (Example 2); settings: 48 hours; for Cell Death Rate/% 1: replicate 1; for Cell Death Rate/% 2: replicate 2; for Cell Death Rate/% 3: replicate 3
# Method: (§1) Cell death rate was calculated by the following formula. Cell death rate=[1−(ODtest[…])]×100%
# (§2) Cell death rates were analyzed using student's t-test, and group differences were deemed statistically significant when the p-value was lower than 0.05. Zheng-Jun Jin's Q value was calculated using the formula Q=EA+B/(EA+EB−EA×EB) to assess the combined effect of Compound 605B and the PARP inhibitor, wherein EA+B, EA, and EB referred to the cell death rates caused by the combined treatment, 605B treatment and PARP inhibitor treatment, respectively. A Q value higher than 1.15 meant a synergistic […] effect.
# (§3) The combined use of Compound 605 and AZD2281 was further tested in other breast cancer cell lines, including BT474 (TCHu 143, National collection of Authenticated Cell Cultures), MCF7 (TCHu 74, National collection of Authenticated Cell Cultures), and MMTV-HER2 (a gift from Dr. Liguang-L, Shanghai Institute of Materia Medica, Chinese Academy of Sciences).
# (§4) Briefly, these cells were cultured at 37° C. in 5% CO2 in RPMI 1640 medium supplemented with i) 10% FBS, ii) 1% penicillin and streptomycin, and iii) AZD2281 (final concentration at 800 nM), Compound 605B (final concentration at 25 nM), 605B+AZD2281 (final concentration at 25 nM and 800 nM), or PBS, for 48 hours. Then, cell viability was determined by a MTT assay. The test was done in triplicate.
# [2] = system: MCF7F cells (fulvestrant-resistant); assay: MTT cell viability / cell death rate, MCF7F cells (Example 1); settings: 48 hours; for Cell Death Rate/% mean: mean of triplicate; for Cell Death Rate/% 1: replicate 1; for Cell Death Rate/% 2: replicate 2; for Cell Death Rate/% 3: replicate 3
# Method: MCF7F cells (fulvestrant-resistant) were maintained at 37° C. in 5% CO2 in RPMI 1640 medium (10-040-CV, Coming cellgro) supplemented with 10% FBS (10270-106, GIBCO), 1% penicillin and 1% streptomycin, and used before the 10th subculture, wherein these cells were in house prepared by culturing MCF7 cells (TCHu 74, National Collection of Authenticated Cell Cultures) in medium containing 1 μM fulvestrant for approximately 18 months (Hong Liu et al., Cooperative effect of gefitinib and fumitremorgin c on cell growth and chemosensitivity in estrogen receptor alpha negative fulvestrant-resistant MCF-7 cells. Int J Oncol. 2006. 29(5):1237-1246).
# Briefly, the MCF7F cells were cultured at 37° C. in 5% CO2 in RPMI 1640 medium supplemented with i) 10% FBS, ii) 1% penicillin and 1% streptomycin, and iii) AZD2281 (final concentration at 800 nM), ABT888 (final concentration at 800 nM), Compound 605B (final concentration at 25 nM), 605B+AZD2281 (final concentration at 25 nM and 800 nM), 605B+ABT888 (final concentration at 25 nM and 800 nM), or PBS (vehicle), for 48 hours. Then, cell viability was determined by a MTT assay. The test was done in triplicate.
# as §1, §2
# [3] = system: MMTV-HER2; assay: MTT cell death rate, MMTV-HER2 cells, 605B with AZD2281 (Example 2); settings: 48 hours; for Cell Death Rate/% 1: replicate 1; for Cell Death Rate/% 2: replicate 2; for Cell Death Rate/% 3: replicate 3
# Method: as §1, §2, §3, §4
# [4] = system: MCF7; assay: MTT cell death rate, MCF7 cells, 605B with AZD2281 (Example 2); settings: 48 hours; for Cell Death Rate/% 1: replicate 1; for Cell Death Rate/% 2: replicate 2; for Cell Death Rate/% 3: replicate 3
# Method: as §1, §2, §3, §4
# [5] = system: BT474; assay: MTT cell death rate, BT474 cells, 605B with Rucaparib (Example 3); settings: 48 hours; for Cell Death Rate/% 1: replicate 1; for Cell Death Rate/% 2: replicate 2; for Cell Death Rate/% 3: replicate 3
# Method: as §1, §2
# (§5) Compound 605B was tested with another PARP inhibitor, AG014699 (Rucaparib), for the inhibitory effects on breast tumor cell lines, including BT474, MCF7, and MMTV-HER2.
# (§6) Briefly, these cells were cultured at 37° C. in 5% CO2 in RPMI 1640 medium supplemented with i) 10% FBS, ii) 1% penicillin and 1% streptomycin, and iii) AZD2281 (final concentration at 800 nM), Compound 605B (final concentration at 25 nM), 605B+AZD2281 (final concentration at 25 nM and 800 nM), or PBS, for 48 hours. Then, cell viability was determined by the MTT assay. The test was done in triplicate.
# [6] = system: MCF7; assay: MTT cell death rate, MCF7 cells, 605B with Rucaparib (Example 3); settings: 48 hours; for Cell Death Rate/% 1: replicate 1; for Cell Death Rate/% 2: replicate 2; for Cell Death Rate/% 3: replicate 3
# Method: as §1, §2, §5, §6
# [7] = system: MMTV-HER2; assay: MTT cell death rate, MMTV-HER2 cells, 605B with Rucaparib (Example 3); settings: 48 hours; for Cell Death Rate/% 1: replicate 1; for Cell Death Rate/% 2: replicate 2; for Cell Death Rate/% 3: replicate 3
# Method: as §1, §2, §5, §6
smiles,measurement,setting,value
"O=C(c1cc(Cc2n[nH]c(=O)c3ccccc23)ccc1F)N1CCN(C(=O)C2CC2)CC1 [AZD2281, Olaparib]",Cell Death Rate/% mean,[1]; final concentration 800 nM,5.28%
same,Cell Death Rate/% 1,[1]; final concentration 800 nM,5.47%
same,Cell Death Rate/% 2,[1]; final concentration 800 nM,5.1%
same,Cell Death Rate/% 3,[1]; final concentration 800 nM,5.27%
same,Cell Death Rate/% mean,[2]; final concentration 800 nM,5.55%
same,Cell Death Rate/% 1,[2]; final concentration 800 nM,5.86%
same,Cell Death Rate/% 2,[2]; final concentration 800 nM,5.42%
same,Cell Death Rate/% 3,[2]; final concentration 800 nM,5.37%
same,Cell Death Rate/% mean,[3]; final concentration 800 nM,8.28%
same,Cell Death Rate/% 1,[3]; final concentration 800 nM,8.34%
same,Cell Death Rate/% 2,[3]; final concentration 800 nM,8.46%
same,Cell Death Rate/% 3,[3]; final concentration 800 nM,8.05%
same,Cell Death Rate/% mean,[4]; final concentration 800 nM,5.34%
same,Cell Death Rate/% 1,[4]; final concentration 800 nM,5.34%
same,Cell Death Rate/% 2,[4]; final concentration 800 nM,5.39%
same,Cell Death Rate/% 3,[4]; final concentration 800 nM,5.66%
"C[C@]1(c2nc3c(C(N)=O)cccc3[nH]2)CCCN1 [ABT888, Veliparib]",Cell Death Rate/% mean,[2]; final concentration 800 nM,4.63%
same,Cell Death Rate/% 1,[2]; final concentration 800 nM,4.69%
same,Cell Death Rate/% 2,[2]; final concentration 800 nM,4.28%
same,Cell Death Rate/% 3,[2]; final concentration 800 nM,4.93%
"NC(=O)c1nnc(N[C@H]2CCCNC2)c2cc(-c3cccc(F)c3)sc12 [Compound 605B, 2-(3-fluorophenyl)-4-(3-piperidineamino)-thieno[2,3-d]pyridazine-7-carboxylic acid amide]",Cell Death Rate/% mean,[1]; final concentration 25 nM,7.67%
same,Cell Death Rate/% 1,[1]; final concentration 25 nM,7.72%
same,Cell Death Rate/% 2,[1]; final concentration 25 nM,7.45%
same,Cell Death Rate/% 3,[1]; final concentration 25 nM,7.83%
same,inhibitory effects on cells / cell death rates (in words),[2],little inhibitory effects
same,Cell Death Rate/% mean,[2]; final concentration 25 nM,4.97%
same,Cell Death Rate/% 1,[2]; final concentration 25 nM,5.03%
same,Cell Death Rate/% 2,[2]; final concentration 25 nM,5.22%
same,Cell Death Rate/% 3,[2]; final concentration 25 nM,4.67%
same,Cell Death Rate/% mean,[5]; final concentration 25 nM,8.47%
same,Cell Death Rate/% 1,[5]; final concentration 25 nM,8.49%
same,Cell Death Rate/% 2,[5]; final concentration 25 nM,8.24%
same,Cell Death Rate/% 3,[5]; final concentration 25 nM,8.67%
same,Cell Death Rate/% mean,[3]; final concentration 25 nM,8.50%
same,Cell Death Rate/% 1,[3]; final concentration 25 nM,8.69%
same,Cell Death Rate/% 2,[3]; final concentration 25 nM,8.33%
same,Cell Death Rate/% 3,[3]; final concentration 25 nM,8.47%
same,Cell Death Rate/% mean,[6]; final concentration 25 nM,8.41%
same,Cell Death Rate/% 1,[6]; final concentration 25 nM,8.5%
same,Cell Death Rate/% 2,[6]; final concentration 25 nM,8.39%
same,Cell Death Rate/% 3,[6]; final concentration 25 nM,8.33%
same,Cell Death Rate/% mean,[7]; final concentration 25 nM,9.11%
same,Cell Death Rate/% 1,[7]; final concentration 25 nM,9.13%
same,Cell Death Rate/% 2,[7]; final concentration 25 nM,8.90%
same,Cell Death Rate/% 3,[7]; final concentration 25 nM,9.29%
same,Cell Death Rate/% mean,[4]; final concentration 25 nM,6.51%
same,Cell Death Rate/% 1,[4]; final concentration 25 nM,6.51%
same,Cell Death Rate/% 2,[4]; final concentration 25 nM,6.38%
same,Cell Death Rate/% 3,[4]; final concentration 25 nM,6.72%
CNCc1ccc(-c2[nH]c3cc(F)cc4c3c2CCNC4=O)cc1 [Rucaparib],Cell Death Rate/% mean,[5]; final concentration 800 nM,7.60%
same,Cell Death Rate/% 1,[5]; final concentration 800 nM,7.63%
same,Cell Death Rate/% 2,[5]; final concentration 800 nM,7.77%
same,Cell Death Rate/% 3,[5]; final concentration 800 nM,7.39%
same,Cell Death Rate/% mean,[6]; final concentration 800 nM,6.66%
same,Cell Death Rate/% 1,[6]; final concentration 800 nM,6.88%
same,Cell Death Rate/% 2,[6]; final concentration 800 nM,6.46%
same,Cell Death Rate/% 3,[6]; final concentration 800 nM,6.65%
same,Cell Death Rate/% mean,[7]; final concentration 800 nM,7.50%
same,Cell Death Rate/% 1,[7]; final concentration 800 nM,7.54%
same,Cell Death Rate/% 2,[7]; final concentration 800 nM,7.68%
same,Cell Death Rate/% 3,[7]; final concentration 800 nM,7.29%
